Target: T1, human IRAK4 (Homo sapiens, UniProt Q9NWZ3)
T1 construct: GST (N); made in house; host or cells: baculovirus-infected Hi5 (BTI-TN-5B1-4) insect cells
T1 sequence (Q9NWZ3 1-460): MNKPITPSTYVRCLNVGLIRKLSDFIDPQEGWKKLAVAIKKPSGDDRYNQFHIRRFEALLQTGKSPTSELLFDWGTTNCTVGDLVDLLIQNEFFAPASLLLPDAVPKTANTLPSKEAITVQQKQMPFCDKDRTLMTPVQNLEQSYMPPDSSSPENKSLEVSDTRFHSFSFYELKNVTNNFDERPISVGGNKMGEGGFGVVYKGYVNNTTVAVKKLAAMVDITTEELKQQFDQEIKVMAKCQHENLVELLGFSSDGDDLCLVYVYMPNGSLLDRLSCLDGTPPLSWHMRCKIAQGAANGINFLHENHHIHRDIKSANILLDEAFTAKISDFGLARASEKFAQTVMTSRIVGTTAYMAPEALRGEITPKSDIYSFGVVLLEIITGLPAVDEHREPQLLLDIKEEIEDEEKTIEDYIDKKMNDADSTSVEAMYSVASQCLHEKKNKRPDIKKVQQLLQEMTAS
Test: Human IRAK4 kinase activity inhibition assay (IRAK4 TR-FRET assay)
Type: biochemical
Details: 1 mM ATP, GST-human IRAK4, average or median values
Experimental: The IRAK4-inhibitory activity of the inventive substances was measured in the IRAK4 TR-FRET assay (TR-FRET = Time Resolved Fluorescence Resonance Energy Transfer) described hereinafter.
Recombinant fusion protein from N-terminal GST (glutathione S-transferase) and human IRAK4, expressed in baculovirus-infected insect cells (Hi5, BTI-TN-5B1-4, cell line purchased from Invitrogen, catalogue No. B855-02) and purified via affinity chromatography, was used as enzyme. The substrate used for the kinase reaction was the biotinylated peptide biotin-Ahx-[…] (C-terminus in amide form) which can be purchased, for example, from Biosyntan GmbH (Berlin-Buch). For the assay, 11 different concentrations in the range from 20 µM to 0.073 nM were prepared from a 2 mM DMSO solution of the test substance. 50 nl of the respective 100fold concentrated test compound solutions in DMSO were pipetted into a black low-volume 384-well microtitre plate or a black 1536-well microtiter plate (both Greiner Bio-One, Frickenhausen, Germany), 2 µl of a solution of IRAK4 in assay buffer [50 mM HEPES pH 7.5, 5mM MgCl2, 1.0 mM dithiothreitol, 30 µM activated sodium orthovanadate, 0.1% (w/v) of bovine gamma-globulin (BGG) 0.04% (v/v) nonidet-P40 (Sigma)] were added and the mixture was incubated for 15 min to allow prebinding of the substances to the enzyme prior to the kinase reaction. […] The concentration of the IRAK4 was adjusted to the respective activity of the enzyme and set such that the assay was carried out in the linear range. Typical concentrations were in the order of about 0.2 nM. The reaction was stopped by addition of 5 µl of a solution of TR-FRET detection reagents [0.1 µM streptavidin-XL665 (Cisbio Bioassays; France, catalogue No. 610SAXLG)] and 1.5 nM anti-phosphoserine antibody [Merck Millipore, "STK Antibody", catalogue No. 35-002] and 0.6 nM LANCE EU-W1024-labelled anti-mouse-IgG antibody (Perkin-Elmer, product No. AD0077; alternatively, it is possible to use a terbium cryptate-labelled anti-mouse-IgG antibody from Cisbio Bioassays) in aqueous EDTA solution (100 mM EDTA, 0.4 % [w/v] bovine serum albumin [BSA] in 25 mM HEPES pH 7.5). The resulting mixture was incubated at 22°C for 1 h to allow formation of a complex of the biotinylated phosphorylated substrate and the detection reagents. The amount of the phosphorylated substrate was then evaluated by measuring the resonance energy transfer from europium chelate-labelled anti-mouse-IgG antibody to streptavidin-XL665. To this end, the fluorescence emissions at 620 nm and 665 nm were measured after excitation at 350 nm in a TR-FRET measuring instrument, for example a Rubystar (BMG Labtechnologies, Offenburg, Germany) or a Viewlux (Perkin-Elmer). The ratio of the emissions at 665 nm and 622 nm was taken as a measure of the amount of phosphorylated substrate. The data were normalized (enzyme reaction without test substance = 0% inhibition; all other assay components but no enzyme = 100% inhibition).

| Structure (SMILES) | IC50 |
| --- | --- |
| NC1CCN(c2nc(N[C@H]3C[C@H](O)C3)nc3c2cnn3-c2cccc(C(F)(F)F)c2)CC1(F)F (mixture of isomers) [Example I-104, trans-3-({4-[(4RS)-4-amino-3,3-difluoropiperidin-1-yl]-1-[3-(trifluoromethyl)phenyl]-1H-pyrazolo[3,4-d]pyrimidin-6-yl}amino)cyclobutanol] | 178 nM |
| NC1CCN(c2nc(NC3CCS(=O)(=O)CC3)nc3c2cnn3-c2cccc(C(F)(F)F)c2)CC1(F)F (racemic) [Example I-105, 4-[(4RS)-4-amino-3,3-difluoropiperidin-1-yl]-N-(1,1-dioxidotetrahydro-2H-thiopyran-4-yl)-1-[3-(trifluoromethyl)phenyl]-1H-pyrazolo[3,4-d]pyrimidin-6-amine] | 280 nM |
| CC(C)(O)C1CCN(c2nc(N[C@@H]3CNC[C@H]3F)nc3c2cnn3-c2cccc(C(F)(F)F)c2)CC1 (relative stereo) [Example I-65, 2-[1-(6-{[rel-(3R,4R)-4-fluoropyrrolidin-3-yl]amino}-1-[3-(trifluoromethyl)phenyl]-1H-pyrazolo[3,4-d]pyrimidin-4-yl)piperidin-4-yl]propan-2-ol] | 15.6 nM |
| O[C@H]1COC[C@H]1Nc1nc(N2CC(N3CCOCC3)C2)c2cnn(-c3cccc(C(F)(F)F)c3)c2n1 (relative stereo) [Example I-70, rel-(3R,4R)-4-({4-[3-(morpholin-4-yl)azetidin-1-yl]-1-[3-(trifluoromethyl)phenyl]-1H-pyrazolo[3,4-d]pyrimidin-6-yl}amino)tetrahydrofuran-3-ol] | 25 nM |
| O[C@@H]1CC[C@@H]1Nc1nc(N2CC(N3CCOCC3)C2)c2cnn(-c3cccc(C(F)(F)F)c3)c2n1 (relative stereo) [Example I-73, rel-(1R,2S)-2-({4-[3-(morpholin-4-yl)azetidin-1-yl]-1-[3-(trifluoromethyl)phenyl]-1H-pyrazolo[3,4-d]pyrimidin-6-yl}amino)cyclobutanol] | 28 nM |
| O[C@@H]1CC[C@H]1Nc1nc(N2CC(N3CCOCC3)C2)c2cnn(-c3cccc(C(F)(F)F)c3)c2n1 (relative stereo) [Example I-75, rel-(1R,2R)-2-({4-[3-(morpholin-4-yl)azetidin-1-yl]-1-[3-(trifluoromethyl)phenyl]-1H-pyrazolo[3,4-d]pyrimidin-6-yl}amino)cyclobutanol] | 14 nM |
| CS(=O)(=O)[C@H]1C[C@H](Nc2nc(N3C[C@@H](O)[C@H](F)C3)c3cnn(-c4cccc(C(F)F)c4)c3n2)C1 (relative stereo) [II-16-1, rel-(3R,4R)-1-(1-[3-(difluoromethyl)phenyl]-6-{[trans-3-(methylsulfonyl)cyclobutyl]-amino)-1H-pyrazolo[3,4-d]pyrimidin-4-yl)-4-fluoropyrrolidin-3-ol] | 1.36 nM |
| C[C@H]1CN(c2nc(N[C@H]3C[C@H](S(C)(=O)=O)C3)nc3c2cnn3-c2cccc(C(F)F)c2)C[C@@H]1O (single isomer, unassigned) [II-17-3, (3R*,4S*)-1-(1-[3-(difluoromethyl)phenyl]-6-{[trans-3-(methylsulfonyl)cyclobutyl]amino}-1H-pyrazolo[3,4-d]pyrimidin-4-yl)-4-methylpyrrolidin-3-ol] | 4.17 nM |
| CC(C)(O)C1CCN(c2nc(NC3CCS(=O)(=O)C3)nc3c2cnn3-c2cccc(C(F)(F)F)c2)CC1 (single isomer, unassigned; (-)) [Example I-4-3, (-)-2-(1-{6-[(1,1-dioxidotetrahydrothiophen-3-yl)amino]-1-[3-(trifluoromethyl)phenyl]-1H-pyrazolo[3,4-d]pyrimidin-4-yl}piperidin-4-yl)propan-2-ol] | 68.5 nM |
| O=C1C[C@@H](Nc2nc(N3CC(N4CCOCC4)C3)c3cnn(-c4cccc(C(F)(F)F)c4)c3n2)CN1 [Example I-1-2, (4R)-4-({4-[3-(morpholin-4-yl)azetidin-1-yl]-1-[3-(trifluoromethyl)phenyl]-1H-pyrazolo-[3,4-d]pyrimidin-6-yl}amino)pyrrolidin-2-one] | 84.5 nM |
| CC(C)(O)C1CCN(c2nc(N[C@H]3CNC(=O)C3)nc3c2cnn3-c2cccc(C(F)(F)F)c2)CC1 [Example I-2-2, (4R)-4-({4-[4-(2-hydroxypropan-2-yl)piperidin-1-yl]-1-[3-(trifluoromethyl)phenyl]-1H-pyrazolo[3,4-d]pyrimidin-6-yl}amino)pyrrolidin-2-one] | 31.4 nM |
| CC(C)(O)C1CCN(c2nc(NC3CNC(=O)C3)nc3c2cnn3-c2cccc(C(F)(F)F)c2)CC1 (stereo not shown) [Example I-2-3, 4-({4-[4-(2-hydroxypropan-2-yl)piperidin-1-yl]-1-[3-(trifluoromethyl)phenyl]-1H-pyrazolo[3,4-d]pyrimidin-6-yl}amino)pyrrolidin-2-one] | 9.69 nM |
| CCC1(O)CN(c2nc(N[C@H]3CNC(=O)C3)nc3c2cnn3-c2cccc(C(F)(F)F)c2)C1 [Example I-3-2, (4R)-4-({4-(3-ethyl-3-hydroxyazetidin-1-yl)-1-[3-(trifluoromethyl)phenyl]-1H-pyrazolo[3,4-d]pyrimidin-6-yl}amino)pyrrolidin-2-one] | 167 nM |
| CC(C)(O)C1CCN(c2nc(NC3CCS(=O)(=O)C3)nc3c2cnn3-c2cccc(C(F)(F)F)c2)CC1 (stereo not shown) [Example I-4-1, 2-(1-{6-[(1,1-dioxidotetrahydrothiophen-3-yl)amino]-1-[3-(trifluoromethyl)phenyl]-1H-pyrazolo[3,4-d]pyrimidin-4-yl}piperidin-4-yl)propan-2-ol] | 12.2 nM |
| CC(C)(O)C1CCN(c2nc(NC3CC(=O)NC3(C)C)nc3c2cnn3-c2cccc(C(F)(F)F)c2)CC1 (stereo not shown) [Example I-6, 4-({4-[4-(2-hydroxypropan-2-yl)piperidin-1-yl]-1-[3-(trifluoromethyl)phenyl]-1H-pyrazolo-[3,4-d]pyrimidin-6-yl}amino)-5,5-dimethylpyrrolidin-2-one] | 76.8 nM |
| CC(C)(O)C1CCN(c2nc(N[C@@H]3CCC(=O)NC3)nc3c2cnn3-c2cccc(C(F)(F)F)c2)CC1 [Example I-7-1, (5R)-5-({4-[4-(2-hydroxypropan-2-yl)piperidin-1-yl]-1-[3-(trifluoromethyl)phenyl]-1H-pyrazolo[3,4-d]pyrimidin-6-yl}amino)piperidin-2-one] | 11.4 nM |
| CC(C)(O)C1CCN(c2nc(N[C@H]3CCC(=O)NC3)nc3c2cnn3-c2cccc(C(F)(F)F)c2)CC1 [Example I-7-2, (5S)-5-({4-[4-(2-hydroxypropan-2-yl)piperidin-1-yl]-1-[3-(trifluoromethyl)phenyl]-1H-pyrazolo[3,4-d]pyrimidin-6-yl}amino)piperidin-2-one] | 33.8 nM |
| CN1CC(Nc2nc(N3CCC(C(C)(C)O)CC3)c3cnn(-c4cccc(C(F)(F)F)c4)c3n2)CC1=O (stereo not shown) [Example I-8, 4-({4-[4-(2-hydroxypropan-2-yl)piperidin-1-yl]-1-[3-(trifluoromethyl)phenyl]-1H-pyrazolo[3,4-d]pyrimidin-6-yl}amino)-1-methylpyrrolidin-2-one] | 41.4 nM |
| CN1CC[C@@H](Nc2nc(N3CCC(C(C)(C)O)CC3)c3cnn(-c4cccc(C(F)(F)F)c4)c3n2)C1=O [Example I-9, (3R)-3-({4-[4-(2-hydroxypropan-2-yl)piperidin-1-yl]-1-[3-(trifluoromethyl)phenyl]-1H-pyrazolo[3,4-d]pyrimidin-6-yl}amino)-1-methylpyrrolidin-2-one] | 59.5 nM |

— EP3800188A1, “SUBSTITUTED PYRAZOLOPYRIMIDINES AS IRAK4 INHIBITORS” (Bayer AG, priority 2019, dated 2021)
